Measurements as given in ChEMBL document CHEMBL3638513, “Compounds that are ERK inhibitors” (2013).

Biological target: Mitogen-activated protein kinase 1 (Mus musculus, UniProt P63085)
Assay: IMAP Assay: Activated ERK2 activity was determined in the IMAP assay format.

Sequence of Mitogen-activated protein kinase 1 (P63085 whole entry): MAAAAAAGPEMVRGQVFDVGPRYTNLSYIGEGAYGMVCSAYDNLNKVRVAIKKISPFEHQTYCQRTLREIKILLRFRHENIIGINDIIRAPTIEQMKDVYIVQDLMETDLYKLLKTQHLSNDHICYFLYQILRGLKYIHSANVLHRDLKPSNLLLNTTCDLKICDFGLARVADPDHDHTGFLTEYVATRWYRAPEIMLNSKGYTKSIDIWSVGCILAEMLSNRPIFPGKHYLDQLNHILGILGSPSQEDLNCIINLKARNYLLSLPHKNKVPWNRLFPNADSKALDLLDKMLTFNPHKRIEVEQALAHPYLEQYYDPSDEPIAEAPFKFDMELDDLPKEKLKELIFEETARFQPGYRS

## COC[C@@]1(C(=O)Nc2ccc3[nH]nc(-c4ccnc(C5CC5)c4)c3c2)CCN(CC(=O)N2CC=C(c3ccc(-c4ncccn4)cc3)CC2)C1
  IC50: 18.1 nM
